Measurements reported in patent US20250108038A1 (priority 2023, published 2025).
Several values for one entry are separate records, joined by “and”; a condition that tells them apart may be missing. Identical values can stand only once.

What was measured:
[1] = in vivo; conditions: for plasma concentration of Compound I-19: single PO 6.654 mg/kg (as titled), individual mice
Experimental: Dose solutions were prepared freshly on each day of studies prior to dosing.
The animals were weighed immediately prior to dosing and the dose volume was calculated individually based the obtained body weight and the nominal dose volume. […] The nominal dose volume was 10 mL/kg in both studies.
Cage side observation was performed before and after dosing as well as at each scheduled sample collection time. The observation included appearance, posture, behavior, morbidity and mortality. Abnormal findings, if any, are required to be recorded in the study record and communicated with study director, veterinarian, and Supernus if necessary.
Approximately 40 μL blood was collected at each scheduled time point from saphenous veins. The actual sample collection time was within 1 min. of the nominal time for collections prior to or at 1 hour, and within 5% of the nominal values for collections post 1 hour.
The blood samples were placed in pre-labeled micro-centrifuge tubes containing K2EDTA as anticoagulant and kept on ice before they were processed to plasma within 30 minutes of collection by centrifugation at 4° C., 3000 g for 5 minutes. The plasma samples were stored at −70±10° C. until LC-MS/MS analysis.
Plasma concentrations below the LLOQ prior to Tmax were set to zero, and those after Tmax were excluded from PK calculation. The nominal dose and the nominal sample collection time were used for the calculation. The values of plasma concentrations and PK parameters are reported to three significant figures. The average values of each treatment group are presented as mean±SD.

[2] = target: T1, BCRP (Homo sapiens, UniProt Q9UNQ0); assay: Vesicular transport inhibition assay, BCRP (estrone-3-sulfate)
T1 sequence (Q9UNQ0 1-655): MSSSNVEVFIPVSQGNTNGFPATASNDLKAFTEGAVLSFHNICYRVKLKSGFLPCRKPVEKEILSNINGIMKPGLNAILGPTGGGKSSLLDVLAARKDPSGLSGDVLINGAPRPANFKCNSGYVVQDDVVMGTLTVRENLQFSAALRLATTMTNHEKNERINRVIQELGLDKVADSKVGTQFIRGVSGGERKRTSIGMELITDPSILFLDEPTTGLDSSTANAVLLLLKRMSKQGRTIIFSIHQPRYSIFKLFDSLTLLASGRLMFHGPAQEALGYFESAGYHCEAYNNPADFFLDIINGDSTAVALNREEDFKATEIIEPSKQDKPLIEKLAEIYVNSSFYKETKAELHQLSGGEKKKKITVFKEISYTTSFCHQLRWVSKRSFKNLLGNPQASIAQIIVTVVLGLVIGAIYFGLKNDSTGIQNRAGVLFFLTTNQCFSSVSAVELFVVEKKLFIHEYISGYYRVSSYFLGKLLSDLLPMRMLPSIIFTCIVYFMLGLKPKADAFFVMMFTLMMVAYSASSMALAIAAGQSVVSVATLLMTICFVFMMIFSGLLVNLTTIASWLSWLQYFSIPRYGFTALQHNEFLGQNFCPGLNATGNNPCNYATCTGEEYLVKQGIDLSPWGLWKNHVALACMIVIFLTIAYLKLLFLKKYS
Experimental: (§1) Vesicular transport assays were performed with inside-out membrane vesicles prepared from cells overexpressing human ABC (efflux) transporters. The transporters were expressed by SOLVO Biotechnology in mammalian (HEK293) cells. The mammalian cells were stably transfected with the ABC transporter of interest. The assays were conducted according to the actual SOLVO VT assay protocols (PR-ASY-VT-General Protocol for Vesicular Transport Inhibition Assays).
(§2) The membrane vesicle suspension was mixed with the ice-cold transport buffer, then the probe substrate solution was added. […] (for BCRP and MDR1). […] Reactions were quenched by the addition of 200 μL of ice-cold washing buffer and immediate filtration via glass fiber filters mounted to a 96-well plate (filter plate). The filters were washed (5×200 μL of ice-cold washing buffer), dried and the amount of substrate inside the filtered vesicles was determined by liquid scintillation counting.
(§3) Incubation with AMP provided background activity values for all data points.

[3] = target: MDR1 (Homo sapiens, UniProt P08183); assay: Vesicular transport inhibition assay, MDR1 (N-methyl quinidine)
Experimental: as §1, §2, §3

[4] = single PO Compound I-19 6.645 mg/kg, male CD-1 mice, individual animals
[5] = single PO Compound I-19 6.645 mg/kg, male CD-1 mice, mean
[6] = 0.14 μM nominal, follow-up assay
[7] = 1.24 μM nominal, follow-up assay
[8] = 11.11 μM nominal, follow-up assay
[9] = 33.33 μM nominal, follow-up assay
[10] = 100.00 μM nominal, follow-up assay

Chain of MDR1 (P08183 whole entry): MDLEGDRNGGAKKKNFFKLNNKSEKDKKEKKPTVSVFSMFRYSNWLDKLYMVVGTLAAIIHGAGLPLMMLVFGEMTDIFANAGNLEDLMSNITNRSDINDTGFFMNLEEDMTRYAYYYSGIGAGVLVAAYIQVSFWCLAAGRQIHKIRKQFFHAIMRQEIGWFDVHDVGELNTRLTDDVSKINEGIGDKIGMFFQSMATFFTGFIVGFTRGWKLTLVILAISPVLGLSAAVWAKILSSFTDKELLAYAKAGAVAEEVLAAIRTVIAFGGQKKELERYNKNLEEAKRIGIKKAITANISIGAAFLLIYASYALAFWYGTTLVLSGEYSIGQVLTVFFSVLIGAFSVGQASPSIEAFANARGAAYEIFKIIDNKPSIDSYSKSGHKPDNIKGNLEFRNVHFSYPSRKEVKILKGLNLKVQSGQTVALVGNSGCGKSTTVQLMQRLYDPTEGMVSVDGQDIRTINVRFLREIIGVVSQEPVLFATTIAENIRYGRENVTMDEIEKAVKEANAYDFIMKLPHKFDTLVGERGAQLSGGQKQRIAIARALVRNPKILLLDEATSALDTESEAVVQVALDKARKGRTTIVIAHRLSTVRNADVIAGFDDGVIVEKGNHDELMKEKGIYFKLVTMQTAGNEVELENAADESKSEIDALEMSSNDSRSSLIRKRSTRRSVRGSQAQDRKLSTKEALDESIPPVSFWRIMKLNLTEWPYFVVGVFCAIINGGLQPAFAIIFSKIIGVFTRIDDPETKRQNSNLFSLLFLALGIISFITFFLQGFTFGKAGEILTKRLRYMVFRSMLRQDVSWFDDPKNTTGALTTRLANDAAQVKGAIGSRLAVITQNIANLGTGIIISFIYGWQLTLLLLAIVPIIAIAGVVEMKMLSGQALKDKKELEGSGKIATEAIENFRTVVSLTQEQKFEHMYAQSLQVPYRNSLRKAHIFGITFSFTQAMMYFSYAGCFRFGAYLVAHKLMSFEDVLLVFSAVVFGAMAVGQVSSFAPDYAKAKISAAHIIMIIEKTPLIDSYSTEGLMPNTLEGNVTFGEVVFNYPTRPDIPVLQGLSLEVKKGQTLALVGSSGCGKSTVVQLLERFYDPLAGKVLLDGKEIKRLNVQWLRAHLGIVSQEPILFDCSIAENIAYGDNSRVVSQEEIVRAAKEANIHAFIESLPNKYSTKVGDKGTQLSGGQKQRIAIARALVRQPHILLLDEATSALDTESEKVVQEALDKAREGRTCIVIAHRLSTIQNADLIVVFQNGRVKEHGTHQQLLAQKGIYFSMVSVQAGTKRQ

Clc1ccc(C2(OCC3OCCO3)c3ccccc3C3=NCCN32)cc1 (stereo not drawn) [Compound I-19]
plasma concentration of Compound I-19 ([1]; 4.00 h): BQL
plasma concentration of Compound I-19 ([1]; 8.00 h): BQL
plasma concentration of Compound I-19 ([1]; 24.0 h): BQL
plasma concentration of Compound I-19 ([1]; […] h): 2.78 ng/mL
plasma concentration of Compound I-19 ([1]; […] h, 6.654 mg/kg): BQL
AUC0-inf of Compound I-19 [1, 4]: 6.92 ng·h/mL
MRT0-inf of Compound I-19 [1, 4]: 50.2 min
MRT0-last of Compound I-19 [1, 4]: 20.8 min and 15 min and 29.9 min
T1/2 of Compound I-19 [1, 4]: 29.1 min
Tmax of Compound I-19 [1, 4]: 30 min
AUC0-last of Compound I-19 [1, 5]: 2.04 ng·h/mL
Cmax of Compound I-19 [1, 5]: 4.27 ng/mL
MRT0-last of Compound I-19 [1, 5]: 21.9 min
Tlast of Compound I-19 [1, 5]: 0.583 h
Tmax of Compound I-19 [1, 5]: 20 min
ATP-dependent transport [2, 6]: 13,445.33 ± 1,138.41 cpm
Relative ATP-dependent transport [2, 6]: 98.49 ± 11.79 % of control
Relative inhibition [2, 6]: 2%
ATP-dependent transport [2, 7]: 12,617.00 ± 500.27 cpm
Relative ATP-dependent transport [2, 7]: 92.42 ± 8.64 % of control
Relative inhibition [2, 7]: 8%
ATP-dependent transport ([2]; 10.00 μM nominal): 15,363.00 ± 602.94^ cpm
Relative ATP-dependent transport ([2]; 10.00 μM nominal): 94.72 ± 7.53 % of control
Relative inhibition ([2]; 10.00 μM nominal): 5%
ATP-dependent transport [2, 8]: 12,797.67 ± 194.88 cpm
Relative ATP-dependent transport [2, 8]: 93.75 ± 8.06 % of control
Relative inhibition [2, 8]: 6%
ATP-dependent transport [2, 9]: 10,739.00 ± 289.94 cpm
Relative ATP-dependent transport [2, 9]: 78.67 ± 6.99 % of control
Relative inhibition [2, 9]: 21%
ATP-dependent transport ([2]; 100.00 μM nominal): 7,418.33 ± 222.69 cpm
Relative ATP-dependent transport ([2]; 100.00 μM nominal): 45.74 ± 3.45 % of control
Relative inhibition ([2]; 100.00 μM nominal): 54%
ATP-dependent transport [2, 10]: 7,718.00 ± 183.19 cpm
Relative ATP-dependent transport [2, 10]: 56.54 ± 4.97 % of control
Relative inhibition [2, 10]: 43%
Maximum % inhibition ([2]; BCRP, inside-out membrane vesicles, E3S (1 μM), NIO: No inhibition observed): 43%
maximum inhibition of BCRP-mediated E3S accumulation ([2]; follow-up assay, seven concentrations): 43%
ATP-dependent transport [3, 6]: 3,812.00 ± 42.21 cpm
Relative ATP-dependent transport [3, 6]: 101.02 ± 3.23 % of control
Relative inhibition [3, 6]: −1%
ATP-dependent transport [3, 7]: 3,744.33 ± 56.10 cpm
Relative ATP-dependent transport [3, 7]: 99.23 ± 3.33 % of control
Relative inhibition [3, 7]: 1%
ATP-dependent transport ([3]; 10.00 μM nominal): 1,845.67 ± 148.09 cpm
Relative ATP-dependent transport ([3]; 10.00 μM nominal): 51.19 ± 4.18 % of control
Relative inhibition ([3]; 10.00 μM nominal): 49%
ATP-dependent transport [3, 8]: 2,730.67 ± 83.62 cpm
Relative ATP-dependent transport [3, 8]: 72.36 ± 3.10 % of control
Relative inhibition [3, 8]: 28%
ATP-dependent transport [3, 9]: 1,363.00 ± 46.72 cpm
Relative ATP-dependent transport [3, 9]: 36.12 ± 1.64 % of control
Relative inhibition [3, 9]: 64%
ATP-dependent transport ([3]; 100.00 μM nominal): 2.84 ± 21.41 cpm
Relative ATP-dependent transport ([3]; 100.00 μM nominal): 7.89 ± 0.61 % of control
Relative inhibition ([3]; 100.00 μM nominal): 92%
ATP-dependent transport [3, 10]: 407.00 ± 29.39 cpm
Relative ATP-dependent transport [3, 10]: 10.79 ± 0.84 % of control
Relative inhibition [3, 10]: 89%
maximum inhibition of MDR1-mediated NMQ accumulation ([3]; 2-concentration assay, up to 100 μM (Compound A up to 50 μM)): 92%
Maximum % inhibition ([3]; MDR1, inside-out membrane vesicles, NMQ (1 μM), NIO: No inhibition observed): 89%
maximum inhibition of MDR1-mediated NMQ accumulation ([3]; follow-up assay): 89%
IC50 ([3]; follow-up assay, bottom constrained to 0): 21 µM
